Test results from patent US6630569B1, “Ectoparasiticide agents” (priority 1998, dated 2003).

Tests used:
[1] = tested on: Lucilia cuprina larvae (1st-3rd stage); assay: Blowfly larvae test / development-inhibitory action; assay type: in vivo; conditions: 100% = no flies hatched
Procedure: Blowfly Larvae Test/Development-inhibitory Action
Test animals: Lucilia cuprina larvae (1st-3rd stage)
(§1) Solvent: Dimethyl sulphoxide
20 mg of active compound are dissolved in one ml of dimethyl sulphoxide. To prepare a suitable formulation, the solution of active compound is diluted with water to the particular desired concentration.
About 20 Lucilia cuprina larvae are introduced into a test tube which contains about 1 cm^3 of horse meat and 0.5 ml of the preparation of active compound to be tested. After 24 hours and 48 hours, the effectiveness of the preparation of active compound is determined. The test tubes are transferred into beakers whose bottom is covered with sand. After a further two days, the test tubes are removed and the pupae are counted.
The effect of the preparation of active compound is assessed by the number of flies which have hatched after 1.5 times the development period of an untreated control. 100% means that no flies have hatched; 0% means that all flies have hatched normally.

[2] = tested on: Adults of Ctenocephalides felis; assay: Test with cat fleas / oral uptake; assay type: in vivo; conditions: dosage 100 μg; mortality after 24 h, blood feeding
Procedure: Test with Cat Fleas/oral Uptake
Test animals: Adults of Ctenocephalides felis
Solvent: Dimethyl sulphoxide (DMSO)
7.5 μl of this formulation are added to 3.5 ml of citrated cattle blood and stirred.
20 unfed adult fleas (Ctenocephalides felis, strain “Georgi”) are placed into a chamber (Ø 2.5 cm) whose top and bottom are closed with gauze. A metal cylinder whose underside is covered with parafilm is placed onto the chamber. […] Whereas the blood is warmed to 37° C., the temperature in the area of the flea chambers is adjusted to 25° C. Controls are mixed with the same volume of DMSO, without addition of a compound. The determinations are carried out in triplicate.
After 24 h, the mortality in % (=dead fleas) is determined, using imidacloprid as standard.

silkworms = conditions: in vivo; cited from earlier work
[3] = tested on: Adult females of Boophilus microplus (parkhurst strain, SP-resistant); assay: Test with resistant monoxenous cattle ticks / SP-resistant Parkhurst strain (injection into abdomen); assay type: in vivo; conditions: dosage 20 μg injected; 100% = no fertile eggs
Procedure: Test with Resistant Monoxenous Cattle Ticks/SP-resistant Parkhurst Strain
Test animals: Adult females of Boophilus microplus (parkhurst strain, SP-resistant) which have sucked themselves full
as §1
20 mg of active compound are dissolved in one ml of dimethyl sulphoxide, more dilute concentrations are prepared by dilution in the same solvent.
The test is carried out in five replications. 1 μl of the solutions is injected into the abdomen, and the animals are transferred into dishes and kept in a climatized room. After seven days, the activity is checked by examination for the position of fertile eggs. Eggs whose fertility is not visible from the outside are stored in glass tubes in a controlled-environment cabinet until the larvae have hatched after about 24 days. An activity of 100% means that the tick has not produced any fertile eggs.

[4] = tested on: All stages of Boophilus microplus, pyrethroid-resistant strain; assay: In vivo test on ticks / mini-dip on cattle; conditions: dosage 1000 μg, 100% = no ticks with fertile eggs
Procedure: In vivo Test on Ticks/mini-dip on Cattle
Test object: All stages of Boophilus microplus (larvae, metalarvae, nymphs, metanymphs and adults) pyrethroid-resistant strain.
Solution: Active compound 30% strength in methyl glycol and emulsifier NP 10 in a ratio of 1:1.
For the treatment of the cattle, concentrations of 1000, 300, 100, 30, 10 and 1 ppm are used, in a volume of 200 ml. The cattle hide to be treated is wetted with the solution of active compound for 1 min.
14×, in intervals of two days, cattle is infected with about 3000 14- to 28-day-old larvae of B. microplus which have not been fed. On day 23 p.i., defined areas on the surface of the cattle skin are wetted with the abovementioned preparation of active compound. From day 24 to 45 p.i., the female adult ticks which develop are counted, and the fertility of the eggs laid by these ticks is checked and used to determine the activity of the preparation of active compound.

## CC(C)C[C@@H]1C(=O)O[C@@H](Cc2ccc(N3CCOCC3)cc2)C(=O)N(C)[C@H](CC(C)C)C(=O)O[C@@H](C)C(=S)N(C)[C@H](CC(C)C)C(=O)O[C@@H](Cc2ccc(N3CCOCC3)cc2)C(=O)N(C)[C@H](CC(C)C)C(=O)O[C@@H](C)C(=O)N1C [compound 9, Cyclo-(N-methyl-L-leucinyl-D-thiolactyl-N-methyl-L-leucinyl-D-4-morpholino-phenyllactyl-N-methyl-L-leucinyl-D-lactyl-N-methyl-L-leucinyl-D-4-N-morpholinophenyllactyl-)]
[1]; dosage 100 ppm
  Activity (in %): 100%
[1]; dosage 1000 ppm
  Activity (in %): 100%
[2]
  Activity (in %): 100%

## CC(C)C[C@H]1C(=O)O[C@H](C(C)C)C(=O)N(C)[C@@H](CC(C)C)C(=O)O[C@H](C(C)C)C(=O)N(C)[C@@H](CC(C)C)C(=O)O[C@H](C(C)C)C(=O)N(C)[C@@H](CC(C)C)C(=O)O[C@H](C(C)C)C(=O)N1C [bassianolide]
silkworms
  insecticidal activity against silkworms: insecticidal activity

## CC(C)C[C@H]1C(=O)O[C@H](Cc2ccccc2)C(=O)N(C)[C@@H](CC(C)C)C(=O)O[C@H](C)C(=O)N(C)[C@@H](CC(C)C)C(=O)O[C@H](Cc2ccccc2)C(=O)N(C)[C@@H](CC(C)C)C(=O)O[C@H](C)C(=O)N1C [PF 1022A, cyclo(-N-methyl-L-leucinyl-D-lactyl-N-methyl-L-leucinyl-D-phenyllactyl-N-methyl-L-leucinyl-D-lactyl-N-methyl-L-leucinyl-D-phenyllactyl-)]
[1]; dosage 1000 ppm
  Activity (in %): 0%
[3]
  Activity (in %): 0%
[2]
  Activity (in %): 0%
[4]
  Activity (in %): 0%
silkworms
  insecticidal activity against silkworms: insecticidal activity
